Read-outs that look alike come from different tables or passages of the source.

Assay [1] concerns Pan T cells isolated from C57BL6 splenocytes. The assay is described as follows: T cell function assays (IFNγ and TNFα in supernatants). In kind it is cell-based, mouse. As to conditions: 0.3 μM compound, 3 days; for IFNγ [pg/mL] anti-CD3/CD28 / TNFα [pg/mL] anti-CD3/CD28: anti-CD3/CD28 stimulation. Here is the method: Example 231: T Cell Function Assays Pan T cells were isolated from C57BL6 splenocytes using a MACS Pan T cell isolation kit II (Miltenyi Biotec, Auburn, Calif.) according to the manufacturer's instructions. Isolated T cells (200,000 cells/well in a 96 well flat-bottom plate) were cultured in RPMI 1640 supplemented with 10% FBS, […] 2-mercaptoethanol, 100 U/mL penicillin, and 100 μg/mL streptomycin, and incubated with 0.3 μM compound or DMSO in duplicates. After 1 hour, mouse T cell activator CD3/CD28 Dynabeads (ThermoFisher Scientific, Waltham, Mass.) were added at a 1:5 beads to cells ratio to stimulate the T cells for 3 days. T cells with or without compound were incubated in the absence of T cell activator beads to evaluate if compounds nonspecifically stimulate the T cells. After 3 days of stimulation, supernatants were collected and IFNγ and TNFα in supernatants were assessed using an MSD V-plex assay (Meso Scale Discovery, Rockville, Md.).

The test system of assay [2] is IFNγ-induced STAT1 phosphorylation in CD14+ monocytes. The assay can be described thus: Human whole blood pSTAT1 proximal pharmacodynamic (PD) assay. In kind it is cell-based. As to conditions: Monocyte, 3 hours compound, IFNγ 20 minutes. Here is the method: Example 230: Human Whole Blood pSTAT1 Proximal Pharmacodynamic (PD) Assay Human blood samples were acquired through internal AbbVie Inc's blood donation program in accordance with AbbVie's Occupational Safety and Health Administration protocols. Blood was collected by venipuncture into sodium heparin coated vacutainer tubes and kept at room temperature for no longer than 1 hour prior to the experiment initiation. Human blood samples (90 μL) were added to the individual wells of 96-well plates containing 10 μL of 10× working stock solutions of increasing concentrations of compounds to achieve final concentrations ranging from 0.025 μM to 500 μM and incubated for 3 hours at 37° C. To induce STAT1 phosphorylation the samples were then treated with recombinant human IFNγ (R&D Systems, Catalog^#285-IF, Minneapolis, Minn.; 100 nM final concentration) for 20 minutes, and 3 μL/well BV421 labeled anti-CD14 surface antibody (Biolegend, San Diego, Calif., Catalog^#301830) was added for 45 minutes before fixation and red blood cell lysis was performed with BD Phosflow Lyse/Fix buffer (BD Biosciences, San Jose, Calif., Catalog^#558049). Cells were subsequently permeabilized on ice by the addition of BD Perm III buffer (BD Biosciences, San Jose, Calif., Catalog^#558050) and stored at -80° C. until use. Before staining, the cells were washed with PBS containing 0.1% BSA. Optim/zed concentrations of BUV395 labeled anti-CD45 (BD Biosciences, San Jose, Calif., Catalog^#563792) and PE labeled anti-phospho-STAT1 ([…]; Invitrogen, Carlsbad, Calif., Catalog^#12-9008-42) antibodies were added to the cell suspensions and incubated for 2 hours. The cells were washed with PBS containing 0.1% BSA and analyzed on a BD LSRFortessaTM X20 flow cytometer (BD Biosciences, San Jose, Calif.) using BD FACSDivaTM software. The data was analyzed using FlowJo V10 analysis software (Flow Jo LLC, Ashland, Oreg.). The amount of STAT phosphorylation was measured by the mean fluorescence intensity (MFI) of pSTAT1 in CD14+monocytes. Compound dose-response curves were determined using a four-parameter logistic-nonlinear regression model from which half maximal effective concentrations (EC50) were calculated. All statistical analyses utilized GraphPad software (San Diego, Calif.).

Assay [3] has as its system B16F10 mouse melanoma cells. The assay is described as follows: B16F10 IFNγ-induced cellular growth inhibition assay. As to conditions: B16-F10, with 0.5 ng/mL IFNγ. The format is cell-based. The gist of the method:
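B16F10 cells grown in DMEM+10% FBS, with or without 0.5 ng/mL final mouse IFNγ, and dosed in triplicate at 100 μM to 0.001 μM final (0.1% DMSO). Confluence imaged every 6 h for 5 days; percent growth inhibition versus DMSO/with-IFNγ control taken once DMSO/no-IFNγ wells exceeded 95% confluence, giving IC50.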

Setting [4] is: read-out: B16F10 Growth Inhibition IC50.

Take `CC(C)(CCN[C@@H]1CCc2cc(O)c(N3CC(=O)NS3(=O)=O)c(F)c2C1)C(F)(F)F` (single isomer, unassigned) [Compound 177]: in assay [1], the “IFNγ [pg/mL] anti-CD3/CD28” value is 168.2 pg/mL, the “TNFα [pg/mL] anti-CD3/CD28” value amounted to 113.7 pg/mL, the “IFNγ [pg/mL] no stimulation” value was 1.0 pg/mL and the “TNFα [pg/mL] no stimulation” value was found to be 0.7 pg/mL. For the same compound, in assay [2], a half-maximal response (EC50) required 2 µM. In addition, the IC50 in assay [3] (read-out: B16F10 GI IC50) is under 1 µM. In assay [3] (setting [4]), the IC50 was 0.14 µM.

As for `CC(C)CCN[C@@H]1CCc2cc(O)c(N3CC(=O)NS3(=O)=O)c(F)c2C1` (single isomer, unassigned) [Compound 118], in assay [1], the “IFNγ [pg/mL] anti-CD3/CD28” value is listed as 261.3 pg/mL, the “TNFα [pg/mL] anti-CD3/CD28” value was 159.1 pg/mL, the “IFNγ [pg/mL] no stimulation” value was 1.8 pg/mL and the “TNFα [pg/mL] no stimulation” value was determined as 1.1 pg/mL. In assay [2], the EC50 worked out at 0.58 µM. Besides, the IC50 in assay [3] (read-out: B16F10 GI IC50) was under 1 µM. The IC50 in assay [3] (setting [4]) came out at 0.11 µM.

Take `O=C1CN(c2c(O)cc3c(c2F)C[C@H](NCCC(F)F)CC3)S(=O)(=O)N1` (single isomer, unassigned) [Compound 260]: in assay [1], the “IFNγ [pg/mL] anti-CD3/CD28” value stood at 139.6 pg/mL, the “TNFα [pg/mL] anti-CD3/CD28” value was determined as 100.0 pg/mL, the “IFNγ [pg/mL] no stimulation” value was 0.8 pg/mL and the “TNFα [pg/mL] no stimulation” value turned out to be 1.1 pg/mL. In addition, in assay [2], the EC50 was 4.4 µM. The IC50 in assay [3] (read-out: B16F10 GI IC50) is under 1 µM. Besides, in assay [3] (setting [4]), the IC50 was 0.18 µM.

Regarding `O=C1CN(c2c(O)cc3c(c2F)C[C@H](NCCCC(F)F)CC3)S(=O)(=O)N1` (single isomer, unassigned) [Compound 199], in assay [1], the “IFNγ [pg/mL] anti-CD3/CD28” value is 212.9 pg/mL, the “TNFα [pg/mL] anti-CD3/CD28” value is 147.8 pg/mL, the “IFNγ [pg/mL] no stimulation” value was 1.8 pg/mL and the “TNFα [pg/mL] no stimulation” value is 1.1 pg/mL. In assay [2], this compound had an EC50 of 0.83 µM. Further, in assay [3] (read-out: B16F10 GI IC50), the IC50 is under 1 µM. For the same compound, the IC50 in assay [3] (setting [4]) was under 0.05 µM.

With `O=C1CN(c2c(O)cc3c(c2F)C[C@H](NCCC2CC2)CC3)S(=O)(=O)N1` (single isomer, unassigned) [Compound 133], in assay [1], the “IFNγ [pg/mL] anti-CD3/CD28” value stood at 204.1 pg/mL, the “TNFα [pg/mL] anti-CD3/CD28” value came out at 142.0 pg/mL, the “IFNγ [pg/mL] no stimulation” value came out at 1.0 pg/mL and the “TNFα [pg/mL] no stimulation” value was found to be 0.8 pg/mL. For the same compound, a half-maximal effect in assay [2] (EC50) was put at 1.6 µM. Besides, the IC50 in assay [3] (read-out: B16F10 GI IC50) is under 1 µM. Moreover, the IC50 in assay [3] (setting [4]) amounted to 0.22 µM.

With `O=C1CN(c2c(O)cc3c(c2F)C[C@@H](NCCC(F)F)CC3)S(=O)(=O)N1` (single isomer, unassigned) [Compound 259], in assay [2], a half-maximal response (EC50) required 14.2 µM. Further, the IC50 in assay [3] (read-out: B16F10 GI IC50) was 1 to 10 µM; in assay [3] (setting [4]), 1.5 µM.

A word on the EC50: it is the concentration that produces a half-maximal response. By IC50 is commonly meant the concentration that gives 50% inhibition.

These data come from patent US10851073B2, “Protein tyrosine phosphatase inhibitors and methods of use thereof” (Calico Life Sciences LLC, priority 2019, dated 2020).
